Assays:
[1] = target: Cyclin-dependent kinase 11B (Homo sapiens, UniProt P21127); assay: Inhibition of PITSLRE in human HeLa cells lysate pre incubated for 15 mins followed by ATP acyl phosphate probe addition and measured after 10 mins by LC-MS/MS analysis; type: subcellular
[2] = target: T1, Dual specificity mitogen-activated protein kinase kinase 3 (Homo sapiens) (UniProt P46734); assay: Inhibition of MAP2K3 in human HeLa cells lysate at 2 uM pre incubated for 15 mins followed by ATP acyl phosphate probe addition and measured after 10 mins by LC-MS/MS analysis relative to control; type: subcellular; conditions: time 25.0 min
T1 sequence (whole entry): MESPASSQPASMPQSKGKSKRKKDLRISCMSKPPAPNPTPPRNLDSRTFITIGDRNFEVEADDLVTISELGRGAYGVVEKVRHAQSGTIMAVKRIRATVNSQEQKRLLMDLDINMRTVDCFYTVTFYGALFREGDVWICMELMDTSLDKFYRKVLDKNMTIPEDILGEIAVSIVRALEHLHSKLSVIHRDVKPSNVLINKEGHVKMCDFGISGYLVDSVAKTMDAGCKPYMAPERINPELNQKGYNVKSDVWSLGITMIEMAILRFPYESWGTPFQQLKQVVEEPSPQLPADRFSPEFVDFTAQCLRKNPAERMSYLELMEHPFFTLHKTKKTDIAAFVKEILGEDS

[3] = target: Casein kinase I isoform alpha (Homo sapiens, UniProt P48729); assay: Inhibition of CK1alpha in human HeLa cells lysate at 10 uM pre incubated for 15 mins followed by ATP acyl phosphate probe addition and measured after 10 mins by LC-MS/MS analysis relative to control; type: subcellular; conditions: time 25.0 min
[4] = Inhibition of PRKX/PRKY in human HeLa cells lysate at 2 uM pre incubated for 15 mins followed by ADP acyl phosphate probe addition and measured after 10 mins by LC-MS/MS analysis relative to control; conditions: 25 min, condition cancer
[5] = target: Ribosomal protein S6 kinase alpha-3 (Homo sapiens, UniProt P51812); assay: Inhibition of RSK2 domain 1 active form in human HeLa cells lysate at 50 uM pre incubated for 15 mins followed by ATP acyl phosphate probe addition and measured after 10 mins by LC-MS/MS analysis relative to control; type: subcellular; conditions: time 25.0 min
[6] = target: T2, Phosphatidylinositol 5-phosphate 4-kinase type-2 gamma (Homo sapiens) (UniProt Q8TBX8); assay: Inhibition of PIP5K2C LIP1 site in human HeLa cells lysate at 50 uM pre incubated for 15 mins followed by ATP acyl phosphate probe addition and measured after 10 mins by LC-MS/MS analysis relative to control; type: subcellular; conditions: time 25.0 min
T2 sequence (whole entry): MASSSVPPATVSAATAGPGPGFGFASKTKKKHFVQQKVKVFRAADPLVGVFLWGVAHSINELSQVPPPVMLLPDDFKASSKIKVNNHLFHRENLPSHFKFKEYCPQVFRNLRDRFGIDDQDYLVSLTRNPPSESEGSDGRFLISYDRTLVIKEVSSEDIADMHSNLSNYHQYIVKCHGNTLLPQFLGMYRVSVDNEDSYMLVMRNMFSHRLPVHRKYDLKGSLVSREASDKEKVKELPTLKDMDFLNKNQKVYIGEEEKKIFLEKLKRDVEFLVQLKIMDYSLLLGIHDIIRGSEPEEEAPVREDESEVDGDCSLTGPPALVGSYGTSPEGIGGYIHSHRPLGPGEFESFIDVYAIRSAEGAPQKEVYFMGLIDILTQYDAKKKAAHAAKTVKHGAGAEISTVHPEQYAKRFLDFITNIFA

[7] = target: T3, Serine/threonine-protein kinase tousled-like 1 (Homo sapiens) (UniProt Q9UKI8); assay: Inhibition of TLK1 in human HeLa cells lysate at 2 uM pre incubated for 15 mins followed by ADP acyl phosphate probe addition and measured after 10 mins by LC-MS/MS analysis relative to control; type: subcellular; conditions: time 25.0 min
T3 sequence (whole entry): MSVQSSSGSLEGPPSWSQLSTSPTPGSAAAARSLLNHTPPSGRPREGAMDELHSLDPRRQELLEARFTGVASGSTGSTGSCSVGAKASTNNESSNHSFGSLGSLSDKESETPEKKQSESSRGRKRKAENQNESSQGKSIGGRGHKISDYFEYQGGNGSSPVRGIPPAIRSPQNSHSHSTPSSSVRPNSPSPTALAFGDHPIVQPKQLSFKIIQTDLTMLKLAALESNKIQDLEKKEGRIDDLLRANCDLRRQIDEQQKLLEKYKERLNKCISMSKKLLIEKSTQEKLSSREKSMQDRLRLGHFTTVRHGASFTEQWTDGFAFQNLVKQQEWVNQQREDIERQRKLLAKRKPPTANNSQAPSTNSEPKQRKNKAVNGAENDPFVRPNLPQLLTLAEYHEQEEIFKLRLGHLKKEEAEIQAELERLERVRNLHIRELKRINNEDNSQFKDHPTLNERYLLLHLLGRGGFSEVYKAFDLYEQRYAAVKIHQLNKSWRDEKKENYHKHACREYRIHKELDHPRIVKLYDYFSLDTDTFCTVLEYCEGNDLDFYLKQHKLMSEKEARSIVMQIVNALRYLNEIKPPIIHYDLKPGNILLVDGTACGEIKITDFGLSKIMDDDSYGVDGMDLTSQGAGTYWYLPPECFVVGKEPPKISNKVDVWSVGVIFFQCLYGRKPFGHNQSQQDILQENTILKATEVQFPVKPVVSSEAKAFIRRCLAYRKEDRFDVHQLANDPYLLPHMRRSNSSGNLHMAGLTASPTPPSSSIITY

[8] = target: T4, Dual specificity mitogen-activated protein kinase kinase 4 (Homo sapiens) (UniProt P45985); assay: Inhibition of MAP2K4 in human HeLa cells lysate at 50 uM pre incubated for 15 mins followed by ADP acyl phosphate probe addition and measured after 10 mins by LC-MS/MS analysis relative to control; type: subcellular; conditions: time 25.0 min
T4 sequence (whole entry): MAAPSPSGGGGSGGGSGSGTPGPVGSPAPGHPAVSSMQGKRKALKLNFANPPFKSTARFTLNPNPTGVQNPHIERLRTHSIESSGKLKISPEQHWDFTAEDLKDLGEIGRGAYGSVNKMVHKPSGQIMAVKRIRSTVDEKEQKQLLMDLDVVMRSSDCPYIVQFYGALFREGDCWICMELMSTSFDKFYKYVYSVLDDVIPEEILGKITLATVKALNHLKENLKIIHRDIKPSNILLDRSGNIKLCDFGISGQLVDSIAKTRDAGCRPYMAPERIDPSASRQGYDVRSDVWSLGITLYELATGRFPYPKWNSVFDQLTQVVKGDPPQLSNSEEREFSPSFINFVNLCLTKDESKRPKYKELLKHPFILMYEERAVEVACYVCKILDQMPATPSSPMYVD

[9] = target: RPS6KA1/RPS6KA2/RPS6KA3 (Homo sapiens, UniProt P51812+Q15349+Q15418); assay: Inhibition of RSK1/2/3 in human HeLa cells lysate pre incubated for 15 mins followed by ATP acyl phosphate probe addition and measured after 10 mins by LC-MS/MS analysis; type: subcellular

Chain of Casein kinase I isoform alpha (P48729 2-337 limits assumed): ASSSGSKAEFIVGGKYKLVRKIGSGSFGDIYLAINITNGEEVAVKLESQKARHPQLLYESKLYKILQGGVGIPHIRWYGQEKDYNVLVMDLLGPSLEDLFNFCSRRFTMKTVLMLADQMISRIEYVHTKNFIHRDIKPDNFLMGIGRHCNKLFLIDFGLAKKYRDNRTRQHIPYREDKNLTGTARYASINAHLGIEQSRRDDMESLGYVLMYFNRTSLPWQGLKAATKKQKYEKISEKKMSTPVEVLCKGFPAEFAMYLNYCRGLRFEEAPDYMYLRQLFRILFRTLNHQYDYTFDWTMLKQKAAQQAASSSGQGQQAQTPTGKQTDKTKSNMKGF
Chain of Ribosomal protein S6 kinase alpha-3 (P51812 whole entry, the tested form may be a part): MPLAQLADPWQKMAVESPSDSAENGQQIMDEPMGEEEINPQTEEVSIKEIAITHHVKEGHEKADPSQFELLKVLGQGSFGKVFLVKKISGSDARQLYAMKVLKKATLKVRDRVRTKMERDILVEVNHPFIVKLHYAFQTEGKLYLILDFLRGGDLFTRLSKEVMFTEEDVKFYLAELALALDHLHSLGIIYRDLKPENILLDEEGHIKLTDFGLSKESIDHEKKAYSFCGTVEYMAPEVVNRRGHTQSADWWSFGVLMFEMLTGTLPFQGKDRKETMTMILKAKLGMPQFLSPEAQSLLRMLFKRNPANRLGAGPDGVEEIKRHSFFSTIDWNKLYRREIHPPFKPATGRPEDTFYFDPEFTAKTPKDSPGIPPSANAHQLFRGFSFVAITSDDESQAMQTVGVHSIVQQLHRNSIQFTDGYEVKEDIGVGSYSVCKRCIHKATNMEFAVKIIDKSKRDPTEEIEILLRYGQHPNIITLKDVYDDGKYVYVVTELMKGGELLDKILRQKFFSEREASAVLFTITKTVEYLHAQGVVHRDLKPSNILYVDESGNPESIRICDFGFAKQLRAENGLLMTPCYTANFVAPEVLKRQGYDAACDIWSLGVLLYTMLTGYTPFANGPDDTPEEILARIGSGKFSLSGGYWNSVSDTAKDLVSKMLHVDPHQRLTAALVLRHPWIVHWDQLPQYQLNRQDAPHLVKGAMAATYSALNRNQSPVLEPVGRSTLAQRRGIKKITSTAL
Chain of Cyclin-dependent kinase 11B (P21127 whole entry): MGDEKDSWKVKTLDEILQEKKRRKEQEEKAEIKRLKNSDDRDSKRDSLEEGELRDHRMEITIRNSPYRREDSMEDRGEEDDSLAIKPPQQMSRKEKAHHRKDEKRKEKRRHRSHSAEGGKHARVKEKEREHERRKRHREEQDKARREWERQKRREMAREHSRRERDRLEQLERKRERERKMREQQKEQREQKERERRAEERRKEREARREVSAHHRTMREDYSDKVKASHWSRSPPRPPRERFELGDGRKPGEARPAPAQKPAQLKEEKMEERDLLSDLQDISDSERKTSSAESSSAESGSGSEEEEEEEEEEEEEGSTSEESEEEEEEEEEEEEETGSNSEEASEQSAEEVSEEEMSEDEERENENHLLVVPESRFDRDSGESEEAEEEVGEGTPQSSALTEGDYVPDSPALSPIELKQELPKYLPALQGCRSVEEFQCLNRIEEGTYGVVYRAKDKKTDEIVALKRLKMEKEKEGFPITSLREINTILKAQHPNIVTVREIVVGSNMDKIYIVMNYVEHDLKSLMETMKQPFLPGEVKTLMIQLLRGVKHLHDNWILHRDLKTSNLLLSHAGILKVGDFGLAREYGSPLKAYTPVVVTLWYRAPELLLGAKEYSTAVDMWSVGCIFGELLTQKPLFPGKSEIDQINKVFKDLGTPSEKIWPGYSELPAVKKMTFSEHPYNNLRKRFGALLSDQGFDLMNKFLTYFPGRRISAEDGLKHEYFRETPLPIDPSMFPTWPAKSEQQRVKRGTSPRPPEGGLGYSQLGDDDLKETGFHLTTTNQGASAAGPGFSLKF

SMILES: CCOc1cc(N2CCC(O)CC2)ccc1Nc1ncc2c(n1)N(C)c1ccccc1C(=O)N2C
- IC50 [1]: > 50 µM
- inhibition [2]: 13.5%
- inhibition [3]: -7.9%
- inhibition at 2 µM [4]: 25.5%
- inhibition [5]: 11.5%
- inhibition [6]: 9.9%
- inhibition [7]: 7.3%
- inhibition [8]: 3.1%
- IC50 [9]: > 50 µM

Reference: ChEMBL document CHEMBL5661979, “Pharmacological inhibition of BMK1 suppresses tumor growth through promyelocytic leukemia protein” (Cancer Cell, 2010)
